Data as given in ChEMBL document CHEMBL3608282 (Bioorg Med Chem Lett, 2015).

Tests used:
[1] = Therapeutic index, ratio of CC50 for african green monkey Vero cells to EC50 for HCV genotype 1b; format: cell-based; settings: Vero cells (CC50) versus HCV genotype 1b (EC50)
Hepatitis C virus [2] = experiment: Antiviral activity against HCV genotype 1b infected in human HuH7 cells assessed as reduction in viral RNA replication; format: functional, organism-based, Hepacivirus hominis; settings: Huh-7
Vero = experiment: Cytotoxicity against african green monkey Vero cells; format: cell-based; settings: chlorocebus sabaeus
[3] = Therapeutic index, ratio of CC50 for human CEM cells to EC50 for HCV genotype 1b; format: cell-based, CCRF-CEM; settings: CEM cells (CC50) versus HCV genotype 1b (EC50)
Hepatitis C virus [4] = experiment: Antiviral activity against HCV genotype 1b expressing NS5A Y93H mutant infected in human HuH7 cells assessed as reduction in viral RNA replication; format: functional, organism-based, Hepacivirus hominis; settings: Huh-7
CCRF-CEM = experiment: Cytotoxicity against human CEM cells; format: cell-based
Hepatitis C virus [5] = experiment: Antiviral activity against HCV genotype 1b expressing NS5A L31V mutant infected in human HuH7 cells assessed as reduction in viral RNA replication; format: functional, organism-based, Hepacivirus hominis; settings: Huh-7
[6] = Therapeutic index, ratio of CC50 for PBMC (unknown origin) to EC50 for HCV genotype 1b; settings: PBMC (CC50) versus HCV genotype 1b (EC50)
PBMC = experiment: Cytotoxicity against PBMC (unknown origin); format: cell-based
Hepatitis C virus [7] = experiment: Antiviral activity against HCV genotype 1a; format: functional, organism-based, Hepacivirus hominis; settings: subtype 1a
[8] = Cytotoxicity against human HuH7 cells; format: cell-based; settings: huh-7
[9] = Therapeutic index, ratio of CC50 for human HuH7 cells to EC50 for HCV genotype 1b; format: cell-based, Huh-7; settings: HuH7 cells (CC50) versus HCV genotype 1b (EC50)
Hepatitis C virus [10] = experiment: Antiviral activity against wild type HCV genotype 1b infected in human HuH7 cells assessed as reduction in viral RNA replication; format: functional, organism-based, Hepacivirus hominis; settings: Huh-7
Hepatitis C virus [11] = experiment: Antiviral activity against HCV genotype 2a; format: functional, organism-based, Hepacivirus hominis
Hepatitis C virus [12] = experiment: Resistance index, ratio of EC50 for HCV genotype 1b expressing NS5A L31V mutant infected in human HuH7 cells to EC50 for wild type HCV genotype 1b infected in human HuH7 cells; format: functional, Hepacivirus hominis, Huh-7

SMILES | selectivity ratio [1] | EC50 (Hepatitis C virus [2]) [nM] | EC90 (Hepatitis C virus [2]) [nM] | CC50 (Vero) [nM] | selectivity ratio [3] | EC50 (Hepatitis C virus [4]) [nM] | CC50 (CCRF-CEM) [nM] | EC50 (Hepatitis C virus [5]) [nM] | selectivity ratio [6] | CC50 (PBMC) [nM] | EC50 (Hepatitis C virus [7]) [nM] | CC50 [8] [nM] | selectivity ratio [9] | EC50 (Hepatitis C virus [10]) [nM] | EC50 (Hepatitis C virus [11]) [nM] | Ratio EC50 (Hepatitis C virus [12])
COC(=O)N[C@@H](CCSC)C(=O)N1CCC[C@H]1c1ncc(-c2ccc(-c3ccc(-c4cnc([C@@H]5CCCN5C(=O)[C@@H](NC(=O)OC)C(C)C)[nH]4)cc3)cc2)[nH]1 | > 1e+06 | 0.03 | 0.1 | 40000 | > 1e+06 | > 0.11 | 11000 | 0.05 | > 1e+06 | 41000 | 0.059 | > 330000 | > 1e+06 | 0.059 | 0.027 | –
COC(=O)N[C@@H](CSC(C)(C)C)C(=O)N1CCC[C@H]1c1ncc(-c2ccc(-c3ccc(-c4cnc([C@@H]5CCCN5C(=O)[C@@H](NC(=O)OC)C(C)C)[nH]4)cc3)cc2)[nH]1 | > 1e+06 | 0.03 | 0.1 | 39000 | > 1e+06 | ≥ 0.33 | 10000 | 0.072 | > 1e+06 | 18000 | 0.14 | > 330000 | > 1e+06 | 0.14 | 0.055 | –
COC(=O)N[C@@H](CS(=O)(=O)Cc1ccccc1)C(=O)N1CCC[C@H]1c1ncc(-c2ccc(-c3ccc(-c4cnc([C@@H]5CCCN5C(=O)[C@@H](NC(=O)OC)C(C)C)[nH]4)cc3)cc2)[nH]1 | > 1e+06 | 0.02 | 0.1 | > 100000 | > 1e+06 | – | > 100000 | – | > 1e+06 | 21000 | – | – | > 1e+06 | – | – | –
COC(=O)N[C@@H](CSC)C(=O)N1CCC[C@H]1c1ncc(-c2ccc(-c3ccc(-c4cnc([C@@H]5CCCN5C(=O)[C@@H](NC(=O)OC)C(C)C)[nH]4)cc3)cc2)[nH]1 | > 1e+06 | 0.061 | 0.1 | 18000 | > 1e+06 | – | 11000 | – | > 1e+06 | 31000 | – | – | > 1e+06 | – | – | –
COC(=O)N[C@@H](CSCc1ccccc1)C(=O)N1CCC[C@H]1c1ncc(-c2ccc(-c3ccc(-c4cnc([C@@H]5CCCN5C(=O)[C@@H](NC(=O)OC)C(C)C)[nH]4)cc3)cc2)[nH]1 | > 1e+06 | 0.02 | 0.032 | > 100000 | > 1e+06 | > 0.33 | 82000 | 0.39 | > 1e+06 | > 100000 | 0.1 | > 330000 | > 1e+06 | 0.1 | 0.039 | >3
COC(=O)N[C@@H](C[S+]([O-])Cc1ccccc1)C(=O)N1CCC[C@H]1c1ncc(-c2ccc(-c3ccc(-c4cnc([C@@H]5CCCN5C(=O)[C@@H](NC(=O)OC)C(C)C)[nH]4)cc3)cc2)[nH]1 (stereo partly specified) | > 1e+06 | 0.1 | 0.3 | 11000 | > 1e+06 | – | 11000 | – | > 1e+06 | 42000 | – | – | > 1e+06 | – | – | –
COC(=O)N[C@H](C(=O)N1CCC[C@H]1c1nc(-c2ccc(-c3ccc(-c4c[nH]c([C@@H]5CCCN5C(=O)[C@@H](NC(=O)OC)C(C)C)n4)cc3)cc2)c[nH]1)C(C)C | – | 0.004 | 0.02 | – | – | 0.18 | – | 0.035 | – | – | 0.048 | > 15000 | – | 0.048 | 0.024 | –
